# Laboratory results from ChEMBL document CHEMBL1153257, “Diphenylpyrazolidinone and benzodiazepine cholecystokinin antagonists: A case of convergent evolution in medicinal chemistry” (Bioorg Med Chem Lett, 1993).
# What was measured:
# [1] = target: T1, Gastrin/cholecystokinin type B receptor (Mus musculus, UniProt P56481); assay: The compound was tested for its activity to inhibit the binding of [125I]CCK-8 to Cholecystokinin type B receptor in mouse brain at a pH of 6.5; type: tissue-based
# T1 sequence (P56481 whole entry): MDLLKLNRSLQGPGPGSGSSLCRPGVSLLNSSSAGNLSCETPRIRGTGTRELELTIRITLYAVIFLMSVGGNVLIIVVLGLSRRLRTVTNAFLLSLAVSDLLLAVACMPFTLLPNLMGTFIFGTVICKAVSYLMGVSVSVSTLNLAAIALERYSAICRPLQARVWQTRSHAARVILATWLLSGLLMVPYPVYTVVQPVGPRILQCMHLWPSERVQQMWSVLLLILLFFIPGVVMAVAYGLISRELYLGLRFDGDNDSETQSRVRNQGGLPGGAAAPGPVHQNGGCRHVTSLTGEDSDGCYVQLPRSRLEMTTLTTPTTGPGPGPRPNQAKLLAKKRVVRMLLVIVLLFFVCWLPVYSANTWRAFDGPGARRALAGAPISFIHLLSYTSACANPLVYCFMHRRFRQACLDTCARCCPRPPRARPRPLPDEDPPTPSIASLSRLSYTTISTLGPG
# [2] = target: T2, Cholecystokinin receptor type A (Rattus norvegicus, UniProt P30551); assay: The compound was tested for its activity to inhibit the binding of [3H]-L-364,718 to Cholecystokinin type A receptor in rat pancreas
# T2 sequence (P30551 whole entry): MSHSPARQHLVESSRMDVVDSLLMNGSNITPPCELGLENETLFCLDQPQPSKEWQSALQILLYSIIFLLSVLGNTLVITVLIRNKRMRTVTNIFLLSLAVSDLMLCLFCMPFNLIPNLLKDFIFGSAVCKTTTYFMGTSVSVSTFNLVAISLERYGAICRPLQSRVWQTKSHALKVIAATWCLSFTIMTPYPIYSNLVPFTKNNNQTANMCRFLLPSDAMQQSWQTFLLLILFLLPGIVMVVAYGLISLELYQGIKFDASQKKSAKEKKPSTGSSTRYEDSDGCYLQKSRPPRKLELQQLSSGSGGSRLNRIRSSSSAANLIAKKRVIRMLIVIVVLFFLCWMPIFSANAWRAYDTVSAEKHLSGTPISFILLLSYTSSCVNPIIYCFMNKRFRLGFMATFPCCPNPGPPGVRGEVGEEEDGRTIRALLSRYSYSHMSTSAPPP
# [3] = target: T2, Cholecystokinin receptor type A; assay: The compound was tested for its activity to inhibit the binding of [125I]CCK-8 to Cholecystokinin type A receptor in rat pancreas
# [4] = target: T1, Gastrin/cholecystokinin type B receptor; assay: The compound was tested for its activity to inhibit the binding of [125I]CCK-8 to Cholecystokinin type B receptor in mouse brain at a pH of 7.4; type: tissue-based
Compound,IC50 [1],IC50 [2],IC50 [3],IC50 [4]
O=C1NN(C(=O)Nc2ccc(Br)cc2)[C@H](c2ccccc2)[C@H]1c1ccccc1,370 nM,6400 nM,–,–
CN1C(=O)[C@@H](NC(=O)c2ccc(Cl)cc2)N=C(c2ccccc2)c2ccccc21,–,–,0.39 nM,–
O=C1NN(C(=S)Nc2ccc(Cl)c(C(F)(F)F)c2)[C@@H](c2ccccc2)[C@@H]1c1ccccc1,–,810 nM,–,550 nM
CN1C(=O)[C@H](NC(=O)c2ccc(Cl)cc2)N=C(c2ccccc2)c2ccccc21,–,–,2.9 nM,–
O=C1NN(C(=O)Nc2ccc(Br)cc2)[C@@H](c2ccccc2)[C@@H]1c1ccccc1,19 nM,20500 nM,–,–
O=C1NN(C(=O)Nc2ccc(Br)cc2)C(c2ccccc2)C1c1ccccc1 (centres undefined),31 nM,11600 nM,–,–
O=C1NN(C(=S)Nc2ccc(Cl)c(C(F)(F)F)c2)C(c2ccccc2)C1c1ccccc1 (centres undefined),–,42 nM,–,880 nM
O=C1NN(C(=S)Nc2ccc(Cl)c(C(F)(F)F)c2)[C@H](c2ccccc2)[C@H]1c1ccccc1,–,17 nM,–,1900 nM
